Broadly, the Ki is a measure of affinity in units of concentration, obtained from inhibition or displacement. A low value points to higher affinity.

Some results are limits rather than exact numbers.

Results on six compounds are retold here after BindingDB's records for doi:10.1073/pnas.151105198 (Synaptic Pharmaceutical, 2001).

For this experiment, the target named is T1, Trace amine-associated receptor 1 (Homo sapiens, UniProt Q96RJ0).
T1 sequence (Q96RJ0 whole entry): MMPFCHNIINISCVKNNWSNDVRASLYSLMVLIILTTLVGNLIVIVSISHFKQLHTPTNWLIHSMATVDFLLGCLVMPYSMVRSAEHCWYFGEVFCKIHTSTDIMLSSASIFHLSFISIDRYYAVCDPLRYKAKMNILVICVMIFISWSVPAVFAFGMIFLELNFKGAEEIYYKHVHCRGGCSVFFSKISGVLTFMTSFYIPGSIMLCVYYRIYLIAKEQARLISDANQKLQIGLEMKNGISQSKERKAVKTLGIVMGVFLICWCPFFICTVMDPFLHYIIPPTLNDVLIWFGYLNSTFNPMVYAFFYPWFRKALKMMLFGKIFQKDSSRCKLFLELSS
As for `NCCc1ccc(O)cc1`, the Ki came out at 34 nM. In other words, the double-digit nanomolar range. With `CN1CCN(C2Cc3ccccc3Sc3ccc(Cl)cc32)CC1` (stereo unspecified) [1-(8-chloro-10,11-dihydrodibenzo[b,f]thiepin-10-yl)-4-methylpiperazine] the figure was 493 nM; with `NCCc1c[nH]c2ccccc12` [1H-indole-3-ethanamine], 1080 nM; with `OCCc1ccccc1` [NSC_6054], 8 nM.

`NCC(O)c1ccc(O)c(O)c1` (stereo not drawn) [Noradrenaline,(+)] had a Ki of over 10000 nM. With `NCCc1c[nH]cn1` [[3H]histamine] the figure was 3110 nM.
